Source: ChEMBL document CHEMBL1208667, “Permanent positive charge strongly influences DNA/RNA binding and antiproliferative activity of urea-phenanthridinium conjugates” (Eur J Med Chem, 2010)
Active and inactive are the calls of the source. No cut-off for these calls is given here.

Tests used:
Calf thymus DNA [1] = assay: Binding affinity to calf thymus DNA in citric acid buffer at pH 5 by fluorescence titration assay relative to control; type: nucleic-acid assay; conditions: Bos taurus
Calf thymus DNA [2] = assay: Binding affinity to calf thymus DNA in citric acid buffer at pH 5 by fluorescence titration assay; type: nucleic-acid assay; conditions: Bos taurus
Nucleic Acid [3] = assay: Binding affinity to poly dA-poly dT RNA in citric acid buffer at pH 5 by fluorescence titration assay relative to control; type: nucleic-acid assay
Nucleic Acid [4] = assay: Binding affinity to poly A-poly U RNA in citric acid buffer at pH 5 by fluorescence titration assay; type: nucleic-acid assay
Nucleic Acid [5] = assay: Binding affinity to poly G-poly C RNA in citric acid buffer at pH 5 by fluorescence titration assay relative to control; type: nucleic-acid assay
Nucleic Acid [6] = assay: Binding affinity to poly G-poly C RNA in citric acid buffer at pH 5 by fluorescence titration assay; type: nucleic-acid assay
Calf thymus DNA [7] = assay: Binding affinity to calf thymus DNA in sodium cacodylate buffer at pH 7 by fluorescence titration assay relative to control; type: nucleic-acid assay; conditions: Bos taurus
Calf thymus DNA [8] = assay: Binding affinity to calf thymus DNA in sodium cacodylate buffer at pH 7 by fluorescence titration assay; type: nucleic-acid assay; conditions: Bos taurus
Nucleic Acid [9] = assay: Binding affinity to poly dA-poly dT RNA in sodium cacodylate buffer at pH 7 by fluorescence titration assay; type: nucleic-acid assay
Nucleic Acid [10] = assay: Binding affinity to poly A-poly U RNA in sodium cacodylate buffer at pH 7 by fluorescence titration assay relative to control; type: nucleic-acid assay
Nucleic Acid [11] = assay: Binding affinity to poly A-poly U RNA in sodium cacodylate buffer at pH 7 by fluorescence titration assay; type: nucleic-acid assay
Nucleic Acid [12] = assay: Binding affinity to poly G-poly C RNA in sodium cacodylate buffer at pH 7 by fluorescence titration assay relative to control; type: nucleic-acid assay
Nucleic Acid [13] = assay: Binding affinity to poly G-poly C RNA in sodium cacodylate buffer at pH 7 by fluorescence titration assay; type: nucleic-acid assay
Nucleic Acid [14] = assay: Binding affinity to poly dA-poly dT RNA in sodium cacodylate buffer at pH 7 by UV-v titration assay; type: nucleic-acid assay
Calf thymus DNA [15] = assay: Binding affinity to calf thymus DNA assessed as change in melting temperature at compound to DNA molar ratio of 0.2 at pH 5 by thermal denaturation assay; type: nucleic-acid assay; conditions: Bos taurus
Calf thymus DNA [16] = assay: Binding affinity to calf thymus DNA assessed as change in melting temperature at compound to DNA molar ratio of 0.3 at pH 5 by thermal denaturation assay; type: nucleic-acid assay; conditions: Bos taurus
Nucleic Acid [17] = assay: Binding affinity to […] assessed as change in melting temperature at compound to DNA molar ratio of 0.2 at pH 5 by thermal denaturation assay; type: nucleic-acid assay
Nucleic Acid [18] = assay: Binding affinity to poly A-poly U RNA assessed as change in melting temperature at compound to DNA molar ratio of 0.2 at pH 5 by thermal denaturation assay; type: nucleic-acid assay
Calf thymus DNA [19] = assay: Binding affinity to calf thymus DNA assessed as change in melting temperature at compound to DNA molar ratio of 0.2 at pH 7 by thermal denaturation assay; type: nucleic-acid assay; conditions: Bos taurus
Calf thymus DNA [20] = assay: Binding affinity to calf thymus DNA assessed as change in melting temperature at compound to DNA molar ratio of 0.3 at pH 7 by thermal denaturation assay; type: nucleic-acid assay; conditions: Bos taurus
Nucleic Acid [21] = assay: Binding affinity to […] assessed as change in melting temperature at compound to DNA molar ratio of 0.2 at pH 7 by thermal denaturation assay; type: nucleic-acid assay
Nucleic Acid [22] = assay: Binding affinity to […] assessed as change in melting temperature at compound to DNA molar ratio of 0.3 at pH 7 by thermal denaturation assay; type: nucleic-acid assay
Nucleic Acid [23] = assay: Binding affinity to poly A-poly U RNA assessed as change in melting temperature at compound to DNA molar ratio of 0.2 at pH 7 by thermal denaturation assay; type: nucleic-acid assay
Nucleic Acid [24] = assay: Binding affinity to poly A-poly U RNA assessed as change in melting temperature at compound to DNA molar ratio of 0.3 at pH 7 by thermal denaturation assay; type: nucleic-acid assay
Calf thymus DNA [25] = assay: Binding affinity to calf thymus DNA at compound to DNA molar ratio of 0.1 to 0.5 at pH 5 by circular dichroism; type: nucleic-acid assay; conditions: Bos taurus
Caco-2 [26] = assay: Cytotoxicity against human Caco-2 cells at 100 uM after 72 hrs by MTT assay; type: functional, cell-based
MIA PaCa-2 [27] = assay: Cytotoxicity against human MIAPaCa2 cells at 100 uM after 72 hrs by MTT assay; type: functional; conditions: MIA PaCa-2, 72 h
MIA PaCa-2 [28] = assay: Cytotoxicity against human MIAPaCa2 cells after 72 hrs by MTT assay; type: functional, cell-based
Caco-2 [29] = assay: Cytotoxicity against human Caco-2 cells at 0.1 to 100 uM after 72 hrs by MTT assay; type: functional, cell-based
MIA PaCa-2 [30] = assay: Cytotoxicity against human MIAPaCa2 cells at 0.1 to 100 uM after 72 hrs by MTT assay; type: functional, cell-based
HeLa = assay: Cytotoxicity against human HeLa cells at 0.1 to 100 uM after 72 hrs by MTT assay; type: functional, cell-based
HT-29 = assay: Cytotoxicity against human HT-29 cells at 0.1 to 100 uM after 72 hrs by MTT assay; type: functional, cell-based
Nucleic Acid [31] = assay: Binding affinity to AMP in citric acid buffer at pH 5 by fluorescence titration assay relative to control; type: nucleic-acid assay
Nucleic Acid [32] = assay: Binding affinity to CMP in citric acid buffer at pH 5 by fluorescence titration assay relative to control; type: nucleic-acid assay
Nucleic Acid [33] = assay: Binding affinity to UMP in citric acid buffer at pH 5 by fluorescence titration assay relative to control; type: nucleic-acid assay
Nucleic Acid [34] = assay: Binding affinity to AMP in sodium cacodylate buffer at pH 7 by fluorescence titration assay relative to control; type: nucleic-acid assay
Nucleic Acid [35] = assay: Binding affinity to GMP in sodium cacodylate buffer at pH 7 by fluorescence titration assay relative to control; type: nucleic-acid assay
Nucleic Acid [36] = assay: Binding affinity to CMP in sodium cacodylate buffer at pH 7 by fluorescence titration assay relative to control; type: nucleic-acid assay
Nucleic Acid [37] = assay: Binding affinity to UMP in sodium cacodylate buffer at pH 7 by fluorescence titration assay relative to control; type: nucleic-acid assay
Calf thymus DNA [38] = assay: Binding affinity to calf thymus DNA assessed as melting temperature at compound to DNA molar ratio of 0.2 at pH 5 by thermal denaturation assay; type: nucleic-acid assay; conditions: Bos taurus
Calf thymus DNA [39] = assay: Binding affinity to calf thymus DNA assessed as melting temperature at compound to DNA molar ratio of 0.2 at pH 7 by thermal denaturation assay; type: nucleic-acid assay; conditions: Bos taurus
Nucleic Acid [40] = assay: Binding affinity to […] assessed as melting temperature at compound to DNA molar ratio of 0.2 at pH 7 by thermal denaturation assay; type: nucleic-acid assay
Nucleic Acid [41] = assay: Binding affinity to […] assessed as melting temperature at compound to DNA molar ratio of 0.3 at pH 7 by thermal denaturation assay; type: nucleic-acid assay
Nucleic Acid [42] = assay: Binding affinity to poly A-poly U RNA assessed as melting temperature at compound to DNA molar ratio of 0.2 at pH 7 by thermal denaturation assay; type: nucleic-acid assay
Nucleic Acid [43] = assay: Binding affinity to poly A-poly U RNA assessed as biphasic transitions of change in melting temperature at compound to DNA molar ratio of 0.2 at pH 5 by thermal denaturation assay; type: nucleic-acid assay
Nucleic Acid [44] = assay: Binding affinity to poly A-poly U RNA assessed as biphasic transitions of melting temperature at compound to DNA molar ratio of 0.2 at pH 5 by thermal denaturation assay; type: nucleic-acid assay

Cc1c2cc(NC(=O)NCCNC(=O)Nc3ccc4c(c3)c(C)[n+](C)c3ccccc43)ccc2c2ccccc2[n+]1C.O=S(=O)([O-])O.O=S(=O)([O-])O
RFU (Calf thymus DNA [1]): 2.6
log Ks (Calf thymus DNA [2]): 6.4
RFU (Nucleic Acid [3]): 56
log Ks (Nucleic Acid [4]): 6.6
RFU (Nucleic Acid [5]): 0
log Ks (Nucleic Acid [6]): 5.5
RFU (Calf thymus DNA [7]): 3
log Ks (Calf thymus DNA [8]): 6.1
log Ks (Nucleic Acid [9]): 5.3
RFU (Nucleic Acid [10]): 9.2
log Ks (Nucleic Acid [11]): 5.3
RFU (Nucleic Acid [12]): 0.7
log Ks (Nucleic Acid [13]): 5.4
log Ks (Nucleic Acid [14]): 5
ΔTm (Calf thymus DNA [15]): 12.1 °C
ΔTm (Calf thymus DNA [16]): 15 °C
ΔTm (Nucleic Acid [17]): 9.4 °C
ΔTm (Nucleic Acid [18]): 1.5 °C
ΔTm (Calf thymus DNA [19]): 2.4 °C
ΔTm (Calf thymus DNA [20]): 3.8 °C
ΔTm (Nucleic Acid [21]): 5.3 °C
ΔTm (Nucleic Acid [22]): 6.1 °C
ΔTm (Nucleic Acid [23]): 0 °C
ΔTm (Nucleic Acid [24]): 0 °C
Activity (Calf thymus DNA [25]): Active
Activity (Caco-2 [26]): inactive
inhibition at 100 µM (MIA PaCa-2 [27]): 35%
Activity (MIA PaCa-2 [28]): Dose-dependent effect
Activity (Caco-2 [29]): Active
Activity (MIA PaCa-2 [30]): Active
Activity (HeLa): Active
Activity (HT-29): Active
RFU (Nucleic Acid [31]): -6.9
RFU (Nucleic Acid [32]): 0.3
RFU (Nucleic Acid [33]): -13.5
RFU (Nucleic Acid [34]): -45.2
RFU (Nucleic Acid [35]): 34.2
RFU (Nucleic Acid [36]): 47.7
RFU (Nucleic Acid [37]): 62.5
Tm (Calf thymus DNA [38]): 72.7 °C
Tm (Calf thymus DNA [39]): 81.7 °C
Tm (Nucleic Acid [40]): 70.2 °C
Tm (Nucleic Acid [41]): 71 °C
Tm (Nucleic Acid [42]): 51.5 °C
ΔTm (Nucleic Acid [43]): -0.1 °C
Tm (Nucleic Acid [44]): 30.7 °C
